Results from BindingDB's records for doi:10.1021/np8001628 (University of Utah, 2008).
Counter-ions that a name gives are not always drawn.

target: Transcription factor p65 (Human, UniProt Q04206); test: Inhibition of IL1-induced NF-kappaB P65 activation in human osteoarthritic primary chondrocytes preincubated 2 hrs before addition of IL1 by ELISA
Sequence (Q04206 whole entry): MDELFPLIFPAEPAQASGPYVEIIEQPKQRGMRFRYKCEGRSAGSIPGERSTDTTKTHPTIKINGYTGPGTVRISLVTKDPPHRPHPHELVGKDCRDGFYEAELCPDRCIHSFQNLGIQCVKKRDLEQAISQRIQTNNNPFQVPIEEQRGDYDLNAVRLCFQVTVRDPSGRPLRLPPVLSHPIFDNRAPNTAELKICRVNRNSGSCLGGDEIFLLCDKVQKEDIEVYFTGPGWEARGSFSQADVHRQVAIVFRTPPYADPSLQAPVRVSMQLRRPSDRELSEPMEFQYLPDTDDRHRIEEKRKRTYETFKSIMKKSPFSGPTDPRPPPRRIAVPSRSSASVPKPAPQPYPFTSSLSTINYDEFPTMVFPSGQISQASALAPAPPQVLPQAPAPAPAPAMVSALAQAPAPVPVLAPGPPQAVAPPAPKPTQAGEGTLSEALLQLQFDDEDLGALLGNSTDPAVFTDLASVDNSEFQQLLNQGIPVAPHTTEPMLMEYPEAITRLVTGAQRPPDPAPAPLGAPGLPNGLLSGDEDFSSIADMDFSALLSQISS

EC50, 12 µM:
C=C(C)C(CC)CC[C@@H](C)[C@H]1CC[C@@]2(C)[C@@H]3C[C@H](OS(=O)(=O)O)[C@H]4[C@@H](O)[C@H](OS(=O)(=O)O)[C@@H](OS(=O)(=O)O)C[C@]4(C)C3=CC[C@]12C (some centres undefined) [Spheciosterol sulfate A]
C=C(C)C(CC[C@@H](C)[C@H]1CC[C@@]2(C)[C@@H]3C[C@H](OS(=O)(=O)O)[C@H]4[C@@H](O)[C@H](OS(=O)(=O)O)[C@@H](OS(=O)(=O)O)C[C@]4(C)C3=CC[C@]12C)C(C)C (some centres undefined) [Spheciosterol sulfate B]
C=C(C)C(C)(C)C(C)CC[C@@H](C)[C@H]1CC[C@@]2(C)[C@@H]3C[C@H](OS(=O)(=O)O)[C@H]4[C@@H](O)[C@H](OS(=O)(=O)O)[C@@H](OS(=O)(=O)O)C[C@]4(C)C3=CC[C@]12C (some centres undefined) [Spheciosterol sulfate C]
CC(C)C1(CC[C@@H](C)[C@H]2CC[C@@]3(C)[C@@H]4C[C@H](OS(=O)(=O)O)[C@H]5[C@@H](O)[C@H](OS(=O)(=O)O)[C@@H](OS(=O)(=O)O)C[C@]5(C)C4=CC[C@]23C)CC1C (some centres undefined) [Topsentiasterol sulfate E]
